“And” between values parts separate entries of the source, which are not always exact repeats. Equal values may be shown once. Read-outs that look alike come from different tables or passages of the source.
Assays:
[1] = cited from earlier work
[2] = Mouse PK study, resveratrol in brain; type: in vivo, CD-1 mice; details: male mice, single dose 50 mg/kg oral, 30 min
Protocol: For mouse PK studies, male CD-1 mice (Charles River Canada) were used. Animals were food fasted for 4 h prior to dosing and water fasted 1 h prior to dosing. […] At each time point (15 min, 30 min, 1 h, 4 h) 3 mice of each group were terminally bled via cardiac puncture under red light. Blood was collected into sodium-EDTA tubes under red light and spun at […] for 10 min at 6800×g. Plasma was collected and split into amber tubes. Both left and right brain were collected and snap-frozen in liquid nitrogen and stored at […] Drug concentrations were analyzed by liquid chromatography-mass spectrometry (LC-MS/MS) by KDM Laboratories Inc. For rat PK studies, male Sprague-Dawley rats (Charles River Canada) were used. […] Blood was collected under red light from the trunk at 30 min into K3EDTA tubes and centrifuged immediately at 4° C. for 10 min at 6800×g, and plasma collected into amber tubes. Brains were collected and snap-frozen in liquid nitrogen and stored at […] Drug concentration was analyzed by LC-MS/MS.

[3] = test system: Human Aβ1-42, Aβ1-40, phosphorylated tau, total tau; experiment: ELISA of AD pathological hallmarks in brain tissue; type: in vivo, 3×Tg-AD mouse; details: 50 mg/kg oral, 9 months
Protocol: At study endpoints (age 15 months for sub-chronic study, age 13 months for long-term study), mice were anaesthetized with isoflurane and blood was collected by transcardial puncture. Blood was stored on ice and then centrifuged at 10,000×g at 4° C. for 10 min to collect serum and stored at −80° C. until use. The brain was then extracted and quickly dissected on ice to collect prefrontal cortex (PFC), hippocampus, entorhinal cortex (ERC), and cerebellum, which were immediately frozen in liquid nitrogen. The samples were stored at −80° C. until processed for RNA or protein extraction. […]
Protein lysates were extracted by sonicating tissue in M-PER Mammalian Protein Extraction Reagent (Thermo Fisher Scientific) supplemented with protease inhibitor (Thermo Fisher Scientific) and phosphatase inhibitor (Thermo Fisher Scientific). Total protein was quantified using Pierce BCA Protein Assay Kit (Thermo Fisher Scientific) and read at 562 nm using EnVision (Perkin Elmer).
Human Aβ1-42, Aβ1-40, phosphorylated tau Ser 396, phosphorylated tau Thr181, and total tau were measured in brain tissue by enzyme linked immuno-sorbent assay (ELISA; Invitrogen by Thermo) and normalized to total protein. All the kits were used as per the manufacturer's instructions and measured using the EnVision® multimode plate reader (Perkin Elmer). […]

[4] = test system: serum cytokines and chemokines; experiment: Serum cytokine and chemokine levels (48-Plex ProcartaPlex, Luminex); type: in vivo, 3×Tg-AD mouse; details: 50 mg/kg oral, 9 months
Protocol: At study endpoints (age 15 months for sub-chronic study, age 13 months for long-term study), mice were anaesthetized with isoflurane and blood was collected by transcardial puncture. Blood was stored on ice and then centrifuged at 10,000×g at 4° C. for 10 min to collect serum and stored at −80° C. until use. The brain was then extracted and quickly dissected on ice to collect prefrontal cortex (PFC), hippocampus, entorhinal cortex (ERC), and cerebellum, which were immediately frozen in liquid nitrogen. The samples were stored at −80° C. until processed for RNA or protein extraction. For each mouse, brain regions from one hemisphere were used for RNA preparation and qPCR and sections from the other hemisphere were used for protein work including ELISAs.
Human Aβ1-42, Aβ1-40, phosphorylated tau Ser 396, phosphorylated tau Thr181, and total tau were measured in brain tissue by enzyme linked immuno-sorbent assay (ELISA; Invitrogen by Thermo) and normalized to total protein. All the kits were used as per the manufacturer's instructions and measured using the EnVision® multimode plate reader (Perkin Elmer). Serum and brain tissue protein extracts were analyzed for cytokine and chemokine levels using the Immune Monitoring 48-Plex Mouse ProcartaPlex™ Panel (Invitrogen by Thermo) according to manufacturer's standard protocol and read using Luminex xMAP (multi-analyte profiling) technology.

Oc1ccc(/C=C/c2cc(O)cc(O)c2)cc1 [RSV, (trans-)resveratrol]
Cmax ([1]; 1 g encapsulated dose (Turner et al. 2015)): 85 ng/mL | Cmax ([1]; 2.5 g micronized dose (Howells et al. 2011)): 1942 ng/mL | AUC exposure, estimated ([1]; 3,000 mg/day, healthy volunteers, published data): 2100 ng·h/mL | Resveratrol accumulation in the brain [2]: not detected in the brain | Phospho-tau at Ser396 in PFC, RSV-treated vs vehicle ([3]; male 3×Tg-AD mice): significantly different | Total tau in hippocampus, decrease vs vehicle ([3]; males and females analyzed together): 170.5±44.83 | BAFF serum level, change vs vehicle ([4]; female 3×Tg-AD mice): 22.01 pg/mL | G-CSF serum level, change vs vehicle ([4]; female 3×Tg-AD mice): -0.68 pg/mL | IFNg serum level, change vs vehicle ([4]; female 3×Tg-AD mice): 1.06 pg/mL | IL-1b serum level, change vs vehicle ([4]; female 3×Tg-AD mice): 0.80 pg/mL | IL-2RA serum level, change vs vehicle ([4]; female 3×Tg-AD mice): -71.13 pg/mL | IL-3 serum level, change vs vehicle ([4]; female 3×Tg-AD mice): 0.15 pg/mL | IL-5 serum level, change vs vehicle ([4]; female 3×Tg-AD mice): 0.05 pg/mL | IL-6 serum level, change vs vehicle ([4]; female 3×Tg-AD mice): -10.05 pg/mL | IL-9 serum level, change vs vehicle ([4]; female 3×Tg-AD mice): 13.83 pg/mL | IL-10 serum level, change vs vehicle ([4]; female 3×Tg-AD mice): -8.54 pg/mL | IL-12p70 serum level, change vs vehicle ([4]; female 3×Tg-AD mice): 0.15 pg/mL | IL-13 serum level, change vs vehicle ([4]; female 3×Tg-AD mice): 15.44 pg/mL | IL-15/IL-15R serum level, change vs vehicle ([4]; female 3×Tg-AD mice): 0.51 pg/mL | IL-17A serum level, change vs vehicle ([4]; female 3×Tg-AD mice): -5.14 pg/mL | IL-18 serum level, change vs vehicle ([4]; female 3×Tg-AD mice): -74.10 pg/mL | IL-19 serum level, change vs vehicle ([4]; female 3×Tg-AD mice): -17.31 pg/mL | IL-22 serum level, change vs vehicle ([4]; female 3×Tg-AD mice): -2.84 pg/mL | IL-23 serum level, change vs vehicle ([4]; female 3×Tg-AD mice): 16.41 pg/mL | IL-25/IL-17 serum level, change vs vehicle ([4]; female 3×Tg-AD mice): -12.62 pg/mL | IL-27 serum level, change vs vehicle ([4]; female 3×Tg-AD mice): 0.92 pg/mL | IL-28 serum level, change vs vehicle ([4]; female 3×Tg-AD mice): 5.70 pg/mL | IL-33 serum level, change vs vehicle ([4]; female 3×Tg-AD mice): -4.36 pg/mL | IP-10 serum level, change vs vehicle ([4]; female 3×Tg-AD mice): -9.75 pg/mL | KC serum level, change vs vehicle ([4]; female 3×Tg-AD mice): -41.09 pg/mL | LIF serum level, change vs vehicle ([4]; female 3×Tg-AD mice): -1.86 pg/mL | LIX serum level, change vs vehicle ([4]; female 3×Tg-AD mice): 1701.00 pg/mL | MCP-1 serum level, change vs vehicle ([4]; female 3×Tg-AD mice): -43.64 pg/mL | MCP-3 serum level, change vs vehicle ([4]; female 3×Tg-AD mice): -212.20 pg/mL | MIP-1a serum level, change vs vehicle ([4]; female 3×Tg-AD mice): 3.71 pg/mL | MIP-1b serum level, change vs vehicle ([4]; female 3×Tg-AD mice): 0.17 pg/mL | MIP-2 serum level, change vs vehicle ([4]; female 3×Tg-AD mice): -7.86 pg/mL | RANTES serum level, change vs vehicle ([4]; female 3×Tg-AD mice): -9.09 pg/mL | TNFa serum level, change vs vehicle ([4]; female 3×Tg-AD mice): -2.67 pg/mL | sRANKL serum level, change vs vehicle ([4]; female 3×Tg-AD mice): -0.58 pg/mL | Eotaxin serum level, change vs vehicle ([4]; female 3×Tg-AD mice, 50 mg/kg): -3162 ± 1165 pg/mL and -3162.00 pg/mL | Leptin serum level, change vs vehicle ([4]; female 3×Tg-AD mice, 50 mg/kg): -33707 ± 9226 pg/mL and -33707.0 pg/mL | BAFF serum level, change vs vehicle ([4]; male 3×Tg-AD mice): -44.06 pg/mL | Eotaxin serum level, change vs vehicle ([4]; male 3×Tg-AD mice): 943.10 pg/mL | G-CSF serum level, change vs vehicle ([4]; male 3×Tg-AD mice): -5.14 pg/mL | IFNg serum level, change vs vehicle ([4]; male 3×Tg-AD mice): -0.66 pg/mL | IL-1b serum level, change vs vehicle ([4]; male 3×Tg-AD mice): -5.86 pg/mL | IL-2RA serum level, change vs vehicle ([4]; male 3×Tg-AD mice): -21.16 pg/mL | IL-5 serum level, change vs vehicle ([4]; male 3×Tg-AD mice): 8.72 pg/mL | IL-6 serum level, change vs vehicle ([4]; male 3×Tg-AD mice): -60.32 pg/mL | IL-9 serum level, change vs vehicle ([4]; male 3×Tg-AD mice): -9.66 pg/mL | IL-10 serum level, change vs vehicle ([4]; male 3×Tg-AD mice): 2.25 pg/mL | IL-12p70 serum level, change vs vehicle ([4]; male 3×Tg-AD mice): -13.72 pg/mL | IL-13 serum level, change vs vehicle ([4]; male 3×Tg-AD mice): -72.28 pg/mL | IL-15/IL-15R serum level, change vs vehicle ([4]; male 3×Tg-AD mice): -11.93 pg/mL | IL-17A serum level, change vs vehicle ([4]; male 3×Tg-AD mice): -6.64 pg/mL | IL-18 serum level, change vs vehicle ([4]; male 3×Tg-AD mice): -415.10 pg/mL | IL-19 serum level, change vs vehicle ([4]; male 3×Tg-AD mice): -23.06 pg/mL | IL-23 serum level, change vs vehicle ([4]; male 3×Tg-AD mice): -12.74 pg/mL | IL-25/IL-17 serum level, change vs vehicle ([4]; male 3×Tg-AD mice): -235.80 pg/mL | IL-28 serum level, change vs vehicle ([4]; male 3×Tg-AD mice): -44.41 pg/mL | IL-33 serum level, change vs vehicle ([4]; male 3×Tg-AD mice): 107.60 pg/mL | IP-10 serum level, change vs vehicle ([4]; male 3×Tg-AD mice): -47.95 pg/mL | KC serum level, change vs vehicle ([4]; male 3×Tg-AD mice): -90.17 pg/mL | LIF serum level, change vs vehicle ([4]; male 3×Tg-AD mice): -8.06 pg/mL | LIX serum level, change vs vehicle ([4]; male 3×Tg-AD mice): -6715.00 pg/mL | Leptin serum level, change vs vehicle ([4]; male 3×Tg-AD mice): -1768.00 pg/mL | MIP-1a serum level, change vs vehicle ([4]; male 3×Tg-AD mice): 4.01 pg/mL | MIP-1b serum level, change vs vehicle ([4]; male 3×Tg-AD mice): -6.40 pg/mL | RANTES serum level, change vs vehicle ([4]; male 3×Tg-AD mice): -24.75 pg/mL | TNFa serum level, change vs vehicle ([4]; male 3×Tg-AD mice): -0.08 pg/mL | VEGF-A serum level, change vs vehicle ([4]; male 3×Tg-AD mice): -17.68 pg/mL | sRANKL serum level, change vs vehicle ([4]; male 3×Tg-AD mice): 4.06 pg/mL | IL-3 serum level, change vs vehicle ([4]; male 3×Tg-AD mice, 50 mg/kg): -1.53 ± 0.26 pg/mL and -1.53 pg/mL | IL-22 serum level, change vs vehicle ([4]; male 3×Tg-AD mice, 50 mg/kg): -23.37 ± 5.2 pg/mL and -23.37 pg/mL | MIP-2 serum level, change vs vehicle ([4]; male 3×Tg-AD mice, 50 mg/kg): -16.16 ± 5.95 pg/mL and -16.16 pg/mL
